For assay [1], the system named is BL41 Burkitt's lymphoma cells. The experiment in a line: Inhibition of proliferation of BL41 cells (incorporation of tritiated thymidine). To be noted: 24 hours culture, FIG. 4A, 50 μM to 50 nM. The assay is classed as cell-based. As to the method:
Tritiated thymidine was added at a concentration of 1 μci/well (0.8.10^5 cells/well) for the last 8 hours of culture and the incorporation of tritiated thymidine measured using a gaseous scintillation β counter.
(§1) The second test is based on the property of certain B lymphomas to cease proliferation and enter apoptosis during the bridging of their membranous CD40 molecule (Tong et al., 1999). In this test, the BL41 cells are incubated with ligands CD40 and after 24 hours either the inhibition of proliferation of these cells is measured, by studying the incorporation of tritiated thymidine, or the percentage of apoptotic cells is measured with a flow cytometry study (FIGS. 4A and 4B).
(§2) Certain B lymphomas enter apoptosis when their CD40 molecule is bridged by an anti-CD40 antibody or by CD40L which is soluble independently from the CD95 molecule. This induction of apoptosis is expressed as a decrease in proliferation measured by the incorporation of tritiated thymidine. The agonist ligands of CD40 will induce an increase in apoptosis and as a result a decrease in the incorporation of tritiated thymidine.
The BL41 Burkitt's lymphoma cells (4.10^5/mL) are cultured in the presence of the different ligands at the chosen concentration. After 24 hours, the cells are either incubated for 8 hours with tritiated thymidine (1 μci/well) to measure the proliferation or are labelled with Annexin V-FITC and propidium iodide to evaluate the percentage of apoptotic cells with flow cytometry.

The subject of assay [2] is BL41 Burkitt's lymphoma cells. The experiment in a line: Apoptosis of BL41 cells (Annexin V-FITC / propidium iodide flow cytometry). The assay is classed as cell-based. To be noted: 24 hours culture, FIG. 4B, 50 to 6 μM. The procedure:
Apoptosis is measured by flow cytometry after labelling with annexin V FITC and propidium iodide. Cells labelled with annexin V alone or with annexin V and propidium iodide are considered apoptotic. The percentage of specific apoptosis is calculated by the following formula: [(% apoptosis with ligand−% apoptosis without ligand)/(100−% apoptosis without ligand)]×100
as §1, §2
The BL41 Burkitt's lymphoma cells (4.10^5/mL) are cultured in the presence of the different ligands at the chosen concentration. […]

In assay [3] the target is T1, human CD40 muIg fusion protein (UniProt P01863+P25942).
T1 construct: purchased ANCELL Corporation, Bayport, Minn
The experiment in a line: Biacore3000 surface plasmon resonance study of the CD40/CD40L interaction and the ligands. The assay is classed as binding. To be noted: in the presence of 100 nM of CD40L. The source says: The Biacore3000 is a device which allows the interactions between two molecules to be studied, based on the surface plasmon resonance. It allows measurement in real time, and therefore allows the kinetics of interaction (association and disassociation) of an analyte (which is in an injected solution) and of a ligand (immobilised on a microchip supporting the measurement) to be monitored. The kinetic measurements at different concentrations of analyte allow calculation of the affinity constants of the interaction between the ligand and the analytes. The microchip contains four cells for different measurements, which allows direct comparison of a reference cell on which a protein which is not pertinent (protein which has no affinity with the ligand studied), but close to the ligand is immobilised with the cell on which the ligand is immobilised.
Rabbit antibodies directed against the constant region of mouse immunoglobulins were immobilized on a microchip. In the reference cell a monoclonal mouse antibody of isotype IgG2a (LG112) at 40 nM is immobilized with a flow of 5 μL/min for 2 minutes; in the cell of the ligand the recombinant CD40 associated with the constant region of the mouse IgG2a heavy chain (human CD40 muIg fusion protein, ANCELL Corporation, Bayport, Minn.) is immobilized under the same conditions.
On the two cells (reference and ligand), the CD40L (human CD154 muCD8 fusion protein, ANCELL Corporation) at different concentrations or the CD40L at a concentration of 1 μM or of 125 nM, are injected, as analyte, in the presence of different concentrations of ligands. The flow in the presence of the analytes is 10 μL/min for 5 minutes to study the association and, in the absence of analytes, the conditions are the same to study the dissociation.
In order to regenerate the cells (i.e. remove all the proteins adsorbed in a non-covalent manner), a solution of 10 mM of HCl is injected at 5 μL/min for 1 minute. The cells are then ready for another analysis.
Background: Surface plasmon resonance follows binding to a sensor surface in real time, without labels.

In a further assay the target is T2, CD40-CD40L interaction (Homo sapiens, UniProt P25942).
T2 construct: they receive a signal via the CD40 molecule, which they express in a constitutive manner; endogenous in cells; host or cells: BL41 Burkitt's lymphoma cells (endogenous CD40), co-cultured with 3T6 fibroblasts transfected with CD40L
The experiment in a line: Expression of CD95 induced by CD40L on BL41 cells cultured with 3T6-CD40L fibroblasts (flow cytometry). Particulars: for effect on the expression of CD95 induced by CD40L (in words): BL41 cells in the presence of 3T6-CD40L cells, no concentration stated; for % of inhibition of the expression of CD95 induced by CD40L: BL41 + 3T6-CD40L, 48 hours. Type of assay: cell-based. As to the method:
Then, the affinity of these ligands for the CD40 molecule is evaluated using a biosensor (BIAcore™). The agonist or antagonist effect of the ligands was tested using two simple biological tests. In the first, the expression of the membranous molecule CD95 by transformed B cells (Burkitt's lymphoma) is studied after activation by the CD40-CD40L interaction (Schattner et al., 1996). In such a model, the CD40L partner is expressed on transfected fibroblasts (3T6-CD40L) (Buelens et al., 1997). The BL41 Burkitt's lymphoma cells are incubated with non-transfected 3T6 fibroblasts (FIGS. 3A and 3C) or with 3T6 fibroblasts transfected by CD40L (FIGS. 3B and 3D). After 48 hours, the expression of CD95 is evaluated by flow cytometry. The expression of CD95 is induced in the presence of CD40L (FIG. 3B). A commercial anti-CD40L antibody inhibits the consequences of the CD40-CD40L interaction (FIG. 3D).
The antagonist effect is evaluated by measurement of the decrease in the expression of CD95 induced by the CD40L in the presence of the different chemical ligands (see Table I). With the help of these tests, the most interesting ligands are chosen to evaluate their activity in vivo and in vitro in more complex models.
The lymphoma B cells express the CD95 molecule when they receive a signal via the CD40 molecule, which they express in a constitutive manner. This signal is generally conveyed by the CD40L (CD154) molecule expressed by another cell. The antagonist ligands inhibit the binding of CD40 on CD40L and thus […] the expression of CD95. The agonist ligands copy the CD40L molecule and induce the expression of CD95 even in the absence of the cell expressing CD40L.
The BL41 Burkitt's lymphoma cells (5.10^5/ml) are cultured in the presence of 3T6 fibroblasts (10^5/ml) transfected (3T6-CD40L) or not transfected with CD40L (3T6), and treated with mitomycin to stop their proliferation. The ligands are added at the start of the culture at the chosen concentration. After culture for 48 hours, expression of the CD95 molecule is measured by flow cytometry. The BL41 cells are distinguished from the fibroblasts using an anti-CD19 antibody (specific marker of the B cells).

The target in assay [4] is T3, human CD40 muIg fusion protein (recombinant CD40 associated with the constant region of the mouse IgG2a heavy … (human; mouse, UniProt P25942 21-193, limits assumed).
T3 construct: Bought reagent; Captured on the Biacore chip through rabbit anti-mouse immunoglobulin antibodies; not shown: constant region of the mouse IgG2a heavy chain
The experiment in a line: SPR (Biacore 3000), inhibition of the binding of 100 nM CD40L to captured CD40 muIg. As to the method:
(§3) Rabbit antibodies directed against the constant region of mouse immunoglobulins were immobilized on a microchip. In the reference cell a monoclonal mouse antibody of isotype IgG2a (LG112) at 40 nM is immobilized with a flow of 5 µL/min for 2 minutes; in the cell of the ligand the recombinant CD40 associated with the constant region of the mouse IgG2a heavy chain (human CD40 muIg fusion protein, ANCELL Corporation, Bayport, Minn.) is immobilized under the same conditions.
(§4) The flow in the presence of the analytes is 10 µL/min for 5 minutes to study the association and, in the absence of analytes, the conditions are the same to study the dissociation.
(§5) The association of L4, L7 (and of its derivatives), L8, L9 L11 and L12 was studied in the presence of 100 nM of CD40L. Only the L4 and L9 molecules bind to CD40 and displace CD40L. The kinetic analysis in the presence of 40 and 80 nM of L4 produced an equilibrium constant for L4 of 180 nM.

Assay [5] deals with T3, human CD40 muIg fusion protein …. The experiment in a line: SPR (Biacore 3000), kinetic analysis with 40 and 80 nM L4 in the presence of 100 nM CD40L over captured CD40 muIg. As to the method:
as §3, §4, §5

For assay [6] the target is unchanged. The experiment in a line: SPR (Biacore 3000), kinetic analysis with 2.5 µM L3 in the presence of 125 nM CD40L over captured CD40 muIg. As to the method: as §3, §4

Where no end group is shown, it is not given here. [ ]: non-standard residue; d: D form. β3hK = NCCCC[C@H](N)CC(=O)O; Ahx = NCCCCCC(=O)O Bounds are passed on as bounds.

T3 sequence (P25942 21-193 limits assumed): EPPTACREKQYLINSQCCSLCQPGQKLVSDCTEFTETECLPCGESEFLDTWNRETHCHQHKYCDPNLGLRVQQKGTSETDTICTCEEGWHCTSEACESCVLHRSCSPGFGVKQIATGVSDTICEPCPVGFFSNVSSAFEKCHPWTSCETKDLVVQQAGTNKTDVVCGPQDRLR
T2 sequence (P25942 21-277): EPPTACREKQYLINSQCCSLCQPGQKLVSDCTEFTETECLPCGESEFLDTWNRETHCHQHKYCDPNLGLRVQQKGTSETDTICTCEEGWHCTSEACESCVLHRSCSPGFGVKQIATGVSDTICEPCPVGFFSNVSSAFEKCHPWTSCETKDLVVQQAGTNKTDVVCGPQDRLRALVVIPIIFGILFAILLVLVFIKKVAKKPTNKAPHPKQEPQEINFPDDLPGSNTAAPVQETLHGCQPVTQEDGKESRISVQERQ
T1 sequence (P25942+P01863 fused): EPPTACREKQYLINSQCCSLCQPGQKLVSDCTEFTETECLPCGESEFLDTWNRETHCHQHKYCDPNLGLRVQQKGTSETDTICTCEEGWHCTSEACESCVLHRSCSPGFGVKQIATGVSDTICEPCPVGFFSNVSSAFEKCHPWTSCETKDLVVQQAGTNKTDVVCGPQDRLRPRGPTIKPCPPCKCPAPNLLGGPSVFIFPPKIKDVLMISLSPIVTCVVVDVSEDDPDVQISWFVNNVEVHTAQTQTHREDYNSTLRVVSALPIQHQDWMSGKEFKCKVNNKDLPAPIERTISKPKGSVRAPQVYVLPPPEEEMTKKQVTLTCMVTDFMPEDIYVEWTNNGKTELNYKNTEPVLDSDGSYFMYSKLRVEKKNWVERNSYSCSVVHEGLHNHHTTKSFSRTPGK

Take “L7-3: L7 analogue: replacement of the aminohexanoic acid spacer arm by a glycine (KGYYG; not fully specified (C-terminus); also: L7 analogue: aminohexanoic acid spacer replaced by glycine, core as L7)”: the “inhibition of the proliferation of BL41 cells (in words)” value (shortened to “inhibition … (in words)”) in assay [1] is listed as “only have a small or no effect”.

For “L11: constituted by the single peptide sequence (KGYY-{Ahx-OH})”, the “apoptosis of BL41 cells (in words)” value in assay [2] is on record as “no effect”. In assay [3], the “binding to CD40 and displacement of CD40L (in words)” value was “Only the L4 and L9 molecules bind to CD40”.

For the molecule “L4a: same core molecule as L4 but only 2 examples of the peptide sequence (chain [dA]K[dA]K[dA]K; peptide H-KGYY[Ahx]; also: two copies of chain 2 linked via Ahx to two Lys ε-amines of chain 1, which Lys not given here, head-to-tail to a chain's N/C-terminus)”, the “effect on the expression of CD95 induced by CD40L (in words)” value with CD40-CD40L interaction was “only very weakly inhibits”. Besides, the “% of inhibition of the expression of CD95 induced by CD40L” value in the assay with CD40-CD40L interaction (ligand 0.5 μM) is on record as 0%; in the assay with CD40-CD40L interaction (ligand 5 μM) it was 8%; with CD40-CD40L interaction (ligand 50 μM), 13%. In assay [2], the “apoptosis of BL41 cells (in words)” value is listed as “very weak apoptosis”.

On to `NCCCC[C@H](N)C(=O)NCC(=O)N[C@@H](Cc1ccc(O)cc1)C(=O)N[C@@H](Cc1ccc(O)cc1)C(=O)NCCCCCC(=O)NCCCOCC(COCCCNC(=O)CCCCCNC(=O)[C@H](Cc1ccc(O)cc1)NC(=O)[C@H](Cc1ccc(O)cc1)NC(=O)CNC(=O)[C@@H](N)CCCCN)(COCCCNC(=O)CCCCCNC(=O)[C@H](Cc1ccc(O)cc1)NC(=O)[C@H](Cc1ccc(O)cc1)NC(=O)CNC(=O)[C@@H](N)CCCCN)NC(=O)CCC(N)=O` [L7], for which the “effect on the expression of CD95 induced by CD40L (in words)” value on CD40-CD40L interaction is recorded as “no effect”. Moreover, the “% of inhibition of the expression of CD95 induced by CD40L” value on CD40-CD40L interaction (ligand 0.5 μM), at CD40-CD40L interaction (ligand 5 μM) and at CD40-CD40L interaction (ligand 50 μM) was 0% in each case. For the same molecule, the “inhibition … (in words)” value in assay [1] was “only have a small or no effect”. In addition, the “binding to CD40 and displacement of CD40L (in words)” value in assay [3] is “Only the L4 and L9 molecules bind to CD40”.

“L7-2: L7 analogue with the reverse sequence H-Tyr-Tyr-Gly-Lys- (YYGK)”: the “inhibition … (in words)” value in assay [1] is “only have a small or no effect”.

B1: Compound L4 (ligand L4): cyclic core structure with 3 examples of the peptide sequence mimicking the CD40-CD40L interface (peptide)
chain: [dA]K[dA]K[dA]K
peptide: H-KGYY[Ahx]
modifications: also: three H-KGYY-Ahx- arms, one on the epsilon-amine of each core Lys, head-to-tail to a chain's N/C-terminus
Take B1: in assay [4], the IC50 (in general, the concentration needed to halve the response being measured) was 80 nM. In assay [5], the Kd (as a rule, the equilibrium constant for the complex coming apart) came to 180 nM.

B2: Compound L3 (ligand L3) (peptide)
chain: KKKKA
peptide: KGYY
modifications: also: core Lys joined through epsilon-amines (isopeptide bonds), KGYY arms on free amines of core Lys, Tyr C-terminus amide-linked directly to core amine, no spacer
notes: also called linear ligand
As to B2, the Kd in assay [6] amounted to 10000 nM.

B3: Compound L9 (ligand L9): cyclic core structure different from that of L4 with 3 examples of the same peptide sequence (peptide)
chain: [β3hK]-[β3hK]-[β3hK]
peptide: H-KGYY[Ahx]
modifications: also: three H-KGYY-Ahx- arms, one on each side-chain amine of the core, head-to-tail to a chain's N/C-terminus
For B3, in assay [4], the IC50 was less than 50 nM.

B4: soluble CD40L: soluble CD40L molecule used as positive control on BL41 cells (protein)
chain: MQKGDQNPQIAAHVISEASSKTTSVLQWAEKGYYTMSNNLVTLENGKQLTVKRQGLYYIYAQVTFCSNREASSQAPFIASLCLKSPGRFERILLRAANTHSSAKPCGQQSIHLGGVFELQPGASVFVNVTDPSQVSHGTGFTSFGLLKL
Regarding B4, the “inhibition … (in words)” value in assay [1] is “greatly inhibits”.

These data come from patent US7741280B2, “Multimeric molecules, the preparation method thereof and use of same for the preparation of medicaments” (Centre National de la Recherche Scientifique, priority 2002, dated 2010).
